“Also recorded” adds a separate entry of the source.
What was measured:
ER = target: T1, ER (Homo sapiens, UniProt P03372); assay: Specific [3H]estradiol-17β binding competition in MCF-7 breast cancer cells; details: MCF-7 cells, 10 nM
T1 construct: endogenous in cells; host or cells: MCF-7 human breast cancer cells in suspension (intact cells)
T1 sequence (P03372 1-595): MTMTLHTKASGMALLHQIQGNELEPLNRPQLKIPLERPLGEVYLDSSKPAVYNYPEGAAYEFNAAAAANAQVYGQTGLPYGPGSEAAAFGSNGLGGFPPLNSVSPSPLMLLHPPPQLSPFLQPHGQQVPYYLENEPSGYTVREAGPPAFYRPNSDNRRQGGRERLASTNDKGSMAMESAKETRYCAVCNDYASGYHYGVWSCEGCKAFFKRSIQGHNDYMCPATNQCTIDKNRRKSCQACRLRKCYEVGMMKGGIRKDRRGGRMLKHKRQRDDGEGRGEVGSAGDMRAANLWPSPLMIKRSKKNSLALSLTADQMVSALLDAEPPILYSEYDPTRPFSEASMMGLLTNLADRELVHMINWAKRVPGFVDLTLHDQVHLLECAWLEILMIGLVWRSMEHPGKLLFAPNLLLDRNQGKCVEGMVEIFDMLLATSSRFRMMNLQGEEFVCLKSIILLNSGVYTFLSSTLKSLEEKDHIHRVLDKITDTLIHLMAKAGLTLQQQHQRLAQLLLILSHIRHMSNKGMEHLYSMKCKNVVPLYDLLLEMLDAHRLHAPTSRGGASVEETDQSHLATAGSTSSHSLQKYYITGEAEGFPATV
Experimental: (§1) FIGS. 20A-20C show biologic activity of selected SERD candidates. […] ER-positive MCF-7 cells were treated in phenol-red free RPMI 1640 without FBS and containing vehicle control (CON) or 100 nM concentrations of either fulvestrant (FX) or antiestrogens 105, 109, 121, 140, 151, 160 or SERD128 in vitro. After 4 hours, cells were harvested and processed for PAGE and Western immunoblots using ERα antibody (1D5, Thermofisher Scientific). RPL13A was used as a loading control. […] Cells were dosed with either E2 alone or with SERDs combined with E2 in phenol redfree medium with 0.1% dextran-coated charcoal-treated FBS in luminometer plates. Data are presented as relative light units (RLU) relative to that of E2 alone in three replicate assays (4 wells per replicate) f SEM. Treatment with E2 alone induced a 12-fold induction of ER-dependent luciferase activity quantified as RLU relative to vehicle control-treated samples.
Specific estradiol-17β (E2) binding and competition for binding by antiestrogen SERD128 or fulvestrant was assessed in human MCF-7 breast cancer cells using methods as described before. […] Competitive ligand binding to ER-positive MCF-7 cells is detected by the ability of a test compound to displace labeled estradiol-17β from the cells in vitro.

[1] = system: ER-dependent transcription; assay: ERE-luciferase T47D reporter, ER-dependent transcriptional activity; type: cell-based, human; details: T47D ERE-luciferase, 10 nM with 2 nM 17β-estradiol
Experimental: as §1
A stable ER-positive T47D ERE luciferase reporter cell line, in which the ERE and the reporter luciferase gene are consistently expressed in the cell line were used in this study (Signosis). […] Lysate was mixed 1:1 with luciferase substrate (Promega), and luminescence was measured using a MLX microtiter plate luminometer (Dynex) and quantified as relative light units (RLU) according to established procedures. Total protein was quantified using BioRad Protein Assay (BioRad).

MCF-7 cells = assay: Cell proliferation assay, MCF-7 (MCF-7/PAR); type: cell-based, human; details: 10 nM with 2 nM estradiol-17β, 48 hr
MCF-7/TMR cells = assay: Cell proliferation assay, MCF-7 with tamoxifen resistance; type: cell-based, human; details: 10 nM with 2 nM estradiol-17β, 48 hr

With `C[C@]12C[C@H](Oc3ccc(N)c(C(F)(F)F)c3)[C@@H]3c4ccc(O)cc4CC[C@H]3[C@@H]1CC[C@@H]2O` [SERD128, (8S,9S,11S,13S,14S,17S)-11-(4-Amino-3-(trifluoromethyl)phenoxy)-13-methyl-7,8,9,11,12,13,14,15,16,17-decahydro-6H-cyclopenta[a]phenanthrene-3,17-diol] the “competition for specific [3H]estradiol-17β (E2) binding” value (ER) was “comparable to that of the pure antiestrogen fulvestrant”, the “ER-dependent luciferase activity (RLU relative to E2 alone)” value [1] was “comparable to that of the pure antiestrogen fulvestrant” and the “cell proliferation (% of estradiol-treated controls)” value (MCF-7 cells) was “significantly blocked proliferation; also recorded: significantly inhibited; also recorded: antiproliferative action”. The “cell proliferation (% of estradiol-treated controls)” value (MCF-7/TMR cells) was “significantly blocked proliferation; also recorded: antiproliferative action”.

Source: US20220133747A1, “ESTROGEN RECEPTOR INHIBITORS AND USES THEROF” (The Regents of the University of California, priority 2018, published 2022)
